Assay results: patent US20170101431A1, “NUCLEOSIDE DERIVATIVES FOR THE TREATMENT OF CANCER” (IDENIX PHARMACEUTICALS LLC, priority 2014, published 2017)
Like-named read-outs stand apart in the source and are kept apart here.

Test system: AML samples (live leukemic cells from bone marrow or peripheral blood of patients)
Test: Ex-vivo effect on AML patient samples (depletion of live leukemic cells, flow cytometry, Annexin V)
Format: cell-based, human
Experimental: Patient samples were obtained from a non-interventional and prospective study. The study included samples from adult patients over 18 years of age who were diagnosed with Acute Myeloid Leukemia (AML).
In one embodiment, the method of data acquisition was performed as follows: on day 1 bone marrow (BM) or peripheral blood (PB) patient sample was received. A small part was separated from the rest of the sample for validation, while the majority of the sample was diluted with culture media and plated into 96-well plates previously prepared with the desired compounds and compound combinations, e.g., a compound or compound combination described herein. The number of live leukemic cells seeded in each well was fixed between 8000 and 32000, depending on the percentage of leukemic cells for each sample. […] Antibodies were added to identify leukemic cells using a gating strategy based on FSC/SSC and expression or lack of expression of different surface markers. The monoclonal antibodies selection was performed to optimize the identification of leukemic cell in each sample.
In one embodiment, non-limiting examples of biomarkers such as the biomarkers CD34, CD45, CD117, and HLADR known as “backbone markers” for AML (van Dongen, J. J. and A. Orfao, EuroFlow: Resetting leukemia and lymphoma immunophenotyping. Basis for companion diagnostics and personalized medicine, Leukemia, 2012, 26, 1899-907) were included in the combination.
In one embodiment, antibody combinations such as CD117/CD45, CD34/CD45, and HLADR/CD45 were used. Live leukemic cells were identified by their light scatter properties (FSC^int/hi/SSC^int) in the absence of Annexin-V-FITC staining. FSC/SSC selection was performed to exclude debris. The average percentage of cell viability upon receipt of the sample was 80% and samples were only processed if the viability was greater than 50%.
In one embodiment, sample validation was performed as follows: BM and PB samples were extracted under sterile conditions and received in the laboratory within 24 hours of extraction. Initial analysis evaluated the number of pathological cells and their viability. Different volumes of sample (1 μL, 3 μL, 5 μL and 7 μL) were aliquoted in duplicate into a 96-well plate. To lyse red blood cells, 180 μL of ammonium chloride lysis solution was added to each well (2 g KHCO3, 16.58 g NH4Cl, 0.074 g Na2EDTA2.H2O, H2O to […]). Following a 10 min incubation period at 4° C., plate was centrifuged for 5 min at 1200 rpm and the supernatant removed. The lysis step was performed twice. To analyze, 20 μL of a combination of Annexin V-FITC (Immunostep, Salamanca, Spain), binding buffer (BB, 2.4 g HEPES, 8.19 g NaCl, 0.37 g Cl2Ca, H2O to […]), and the following monoclonal antibodies (mAb) were added to each well: CD117 (clone 104D2)-PE (Becton Dickinson, San Jose, Calif., US), CD34 (clone 581)-PerCP (BioLegend, San Diego, Calif., US), HLADR (clone L243)-PB (BioLegend) and CD45 (HI30)-PO (Life Technologies, Carlsbad, Calif., US) (van Dongen, J. J., et al., EuroFlow antibody panels for standardized n-dimensional flow cytometric immunophenotyping of normal, reactive and malignant leukocytes, Leukemia, 2012, 26, 1908-75). After 15 min of incubation at room temperature in the dark, a wash step was performed using binding buffer solution. The pellet was resuspended in 30 μL BB for analysis in Vivia's ExviTech© platform. Cell count and viability upon arrival were computed and the optimal volume of sample to use per well was determined.
In one embodiment, the assay was performed according to following method: the whole sample was diluted with RPMI 1640, supplemented with 20% (v/v) FBS (Thermo Scientific, Waltham, Mass., US), 2% HEPES, 1% antibiotic (Zell Shield, Labclinics, Barcelona, Spain) and 1% L-glutamine 200 mM (Lonza, Hopkinton, Mass., US) to a final volume of 60 μL per well. […]

[1] = Homo sapiens, 72 h, plates incubated for 72 hours
[2] = Homo sapiens, 72 h, plates incubated for 72 hours, read-out: Emax
[3] = Homo sapiens, 48 h, plates incubated for 48 hours
[4] = Homo sapiens, 48 h, plates incubated for 48 hours, read-out: Emax

CC(C)(CO)C(=O)SCCOP(=O)(NCc1ccccc1)OC[C@H]1O[C@@H](n2ccc(N)nc2=O)C(O)C1O (stereo partly shown)
EC50 [1]: 10 to 20 µM
Emax [2]: 0 to 10%

COC(=O)[C@H](CC(C)C)NP(=O)(N[C@@H](CC(C)C)C(=O)OC)OC[C@H]1O[C@@H](N2C=NC3C(N)=NC(F)=NC32)[C@@H](O)[C@@H]1O (stereo partly shown)
EC50 [3]: ≥ 20 µM
Emax [4]: 10 to 20%

CCOC(=O)[C@H](CC(C)C)NP(=O)(O)OC[C@H]1O[C@@H](N2C=NC3C(N)=NC(F)=NC32)[C@@H](O)[C@@H]1O (stereo partly shown)
EC50 [3]: 10 to 20 µM
Emax [4]: > 20%

CCOC(=O)[C@H](CC(C)C)NP(=O)(OCC(=O)OC)OC[C@H]1O[C@@H](n2ccc(N)nc2=O)C(O)C1O (single isomer, unassigned) [drawing 664]
EC50 [1]: 1 to 10 µM
Emax [2]: 0 to 10%

CC(C)OP1(=O)OC[C@H]2O[C@@H](N3C=NC4C(N)=NC(F)=NC43)[C@@H](O)[C@@H]2O1 (single isomer, unassigned) [drawing 675]
EC50 [3]: 10 to 20 µM
Emax [4]: > 20%

CC(C)OC(=O)[C@H](C)NP(=O)(OC[C@H]1O[C@@H](n2cnc3c(N)nc(F)nc32)[C@@H](O)[C@@H]1O)Oc1ccccc1 (stereo partly shown)
EC50 (Homo sapiens, plates incubated for 48 hours): ≥ 20 µM
Emax (Homo sapiens, plates incubated for 48 hours, read-out: Emax): 0 to 10%

COC(=O)COP(=O)(N[C@@H](CC(C)C)C(=O)OC)OC[C@H]1O[C@@H](n2cnc3c(N)nc(Cl)nc32)C(F)C1O (single isomer, unassigned) [drawing 659]
EC50 [1]: 1 to 10 µM
Emax [2]: > 20%

CCOC(=O)[C@H](CC(C)C)NP1(=O)OC[C@H]2O[C@@H](n3cnc4c(N)nc(F)nc43)[C@@H](O)[C@@H]2O1 (single isomer, unassigned) [drawing 672]
EC50 [3]: 10 to 20 µM
Emax (plates incubated for 48 hours): C (C>20%)

Nc1nc(F)nc2c1ncn2[C@@H]1O[C@H](COP(=O)(O)NCc2ccccc2)[C@@H](O)[C@@H]1O
EC50 [3]: 1 to 10 µM
Emax [4]: 0 to 10%

COC(=O)[C@H](CC(C)C)NP(=O)(N[C@@H](CC(C)C)C(=O)OC)OC[C@H]1O[C@@H](n2cnc3c(N)nc(Cl)nc32)C(F)C1O (stereo partly shown)
EC50 [1]: 1 to 10 µM
Emax [2]: > 20%

COC(=O)COP(=O)(N[C@@H](CC(C)C)C(=O)OC)OC[C@H]1O[C@@H](n2ccc(N)nc2=O)C(O)C1O (single isomer, unassigned) [drawing 663]
EC50 (plates incubated for 72 hours): 10 to 20 µM
Emax (plates incubated for 72 hours): A (A=0-10%)

Cn1c(COP(=O)(NCc2ccccc2)OC[C@H]2O[C@@H](n3ccc(N)nc3=O)C(O)C2O)cnc1[N+](=O)[O-] (single isomer, unassigned) [drawing 667]
EC50 (plates incubated for 72 hours): 1 to 10 µM

Nc1nc(Cl)nc2c1ncn2[C@@H]1O[C@H](COP(=O)(O)NCc2ccccc2)C(O)C1F (stereo partly shown)
EC50 [1]: ≤ 1 µM
Emax [2]: 0 to 10%

CCOC(=O)[C@H](C)NP1(=O)OC[C@H]2O[C@@H](n3cnc4c(N)nc(F)nc43)[C@@H](O)[C@@H]2O1 (single isomer, unassigned) [drawing 680]
EC50 [3]: 10 to 20 µM
Emax [4]: > 20%

CCOC(=O)C(C)NP1(=O)OCC2O[C@@H](n3cnc4c(N)nc(Cl)nc43)[C@@H](F)[C@@H]2O1 (single isomer, unassigned) [drawing 653]
EC50 (plates incubated for 72 hours): ≤ 1 µM
Emax (plates incubated for 72 hours): A (A=0-10%)

CC(C)(CO)C(=O)SCCOP(=O)(NCc1ccccc1)OC[C@H]1O[C@@H](n2cnc3c(N)nc(Cl)nc32)C(F)C1O (single isomer, unassigned) [drawing 658]
EC50 (plates incubated for 72 hours): 1 to 10 µM
Emax (plates incubated for 72 hours): B (B=10-20%)

Cn1c(COP(=O)(NCc2ccccc2)OC[C@H]2O[C@@H](n3ccc(N)nc3=O)C(O)C2O)cnc1[N+](=O)[O-] (single isomer, unassigned) [drawing 666]
EC50 [1]: 1 to 10 µM
Emax [2]: 0 to 10%

CC(C)OP1(=O)OC[C@H]2O[C@@H](N3C=NC4C(N)=NC(F)=NC43)[C@@H](O)[C@@H]2O1 (single isomer, unassigned) [drawing 676]
EC50 (plates incubated for 48 hours): ≥ 20 µM
Emax (plates incubated for 48 hours): C (C>20%)

CCOC(=O)C(C)NP1(=O)OCC2O[C@@H](n3cnc4c(N)nc(Cl)nc43)[C@@H](F)[C@@H]2O1 (single isomer, unassigned) [drawing 654]
EC50 (plates incubated for 72 hours): 10 to 20 µM
Emax (plates incubated for 72 hours): B (B=10-20%)

COC(=O)COP(=O)(NC(CC(C)C)C(=O)OC)OC[C@H]1O[C@@H](n2cnc3c(N)nc(F)nc32)[C@@H](O)[C@@H]1O (stereo partly shown)
EC50 [3]: 1 to 10 µM
Emax [4]: 0 to 10%

COC(=O)COP(=O)(N[C@@H](CC(C)C)C(=O)OC)OC[C@H]1O[C@@H](n2ccc(N)nc2=O)C(O)C1O (single isomer, unassigned) [drawing 662]
EC50 (plates incubated for 72 hours): 1 to 10 µM
Emax (plates incubated for 72 hours): B (B=10-20%)

CC(C)(CO)C(=O)SCCOP(=O)(NCc1ccccc1)OC[C@H]1O[C@@H](n2cnc3c(N)nc(Cl)nc32)C(F)C1O (single isomer, unassigned) [drawing 657]
EC50 [1]: ≤ 1 µM
Emax [2]: 10 to 20%

COC(=O)COP(=O)(N[C@@H](CC(C)C)C(=O)OC)OC[C@H]1O[C@@H](n2cnc3c(N)nc(Cl)nc32)C(F)C1O (single isomer, unassigned) [drawing 660]
EC50 (plates incubated for 72 hours): 1 to 10 µM
Emax (plates incubated for 72 hours): B (B=10-20%)

Nc1ccn([C@@H]2O[C@H](COP(=O)(O)NCc3ccccc3)C(O)C2O)c(=O)n1 (stereo partly shown)
EC50 [1]: 10 to 20 µM
Emax [2]: 0 to 10%

CCOC(=O)[C@H](CC(C)C)NP1(=O)OC[C@H]2O[C@@H](n3cnc4c(N)nc(F)nc43)[C@@H](O)[C@@H]2O1 (single isomer, unassigned) [drawing 673]
EC50 (plates incubated for 48 hours): ≥ 20 µM
Emax (plates incubated for 48 hours): A (A=0-10%)

CCOC(=O)[C@H](CC(C)C)NP(=O)(OCC(=O)OC)OC[C@H]1O[C@@H](n2ccc(N)nc2=O)C(O)C1O (single isomer, unassigned) [drawing 665]
EC50 (plates incubated for 72 hours): 1 to 10 µM

CCOC(=O)[C@H](C)NP1(=O)OC[C@H]2O[C@@H](n3cnc4c(N)nc(F)nc43)[C@@H](O)[C@@H]2O1 (single isomer, unassigned) [drawing 681]
EC50 (plates incubated for 48 hours): 10 to 20 µM

CC(C)(O)C(=O)SCCOP(=O)(OCCSC(=O)C(C)(C)CO)OC[C@H]1O[C@@H](N2C=NC3C(N)=NC(Cl)=NC32)[C@@H](F)[C@@H]1O (stereo partly shown)
EC50 [1]: 1 to 10 µM
Emax [2]: 10 to 20%

CCCCCCCC/C=C/CCCCCCCC(=O)Nc1ccn([C@@H]2O[C@H](COP(=O)(N[C@@H](CC(C)C)C(=O)OC)N[C@@H](CC(C)C)C(=O)OC)C(O)C2O)c(=O)n1 (stereo partly shown)
EC50 [1]: 10 to 20 µM
Emax [2]: > 20%
